Starred links: 1 amine or outer side, 2 acyl side, 3 side chain; linkers in the order of their positions; H or OH if unused. Non-standard residues stand in square brackets, D forms with d. Residues, ends and D or L forms follow the SMILES beside them. Groups on a side chain read outwards from the residue. X2 = N=C(N)NCCC[C@@H](C(=O)[*:2])N(CCCCCC(=O)[C@H](CC(=O)O)N[*:3])[*:1]; pGlu = O=C1CC[C@@H](C(=O)O)N1

The target of one assay is T1, Orexin receptor type 2 (Homo sapiens, UniProt O43614).
T1 sequence (O43614 whole entry): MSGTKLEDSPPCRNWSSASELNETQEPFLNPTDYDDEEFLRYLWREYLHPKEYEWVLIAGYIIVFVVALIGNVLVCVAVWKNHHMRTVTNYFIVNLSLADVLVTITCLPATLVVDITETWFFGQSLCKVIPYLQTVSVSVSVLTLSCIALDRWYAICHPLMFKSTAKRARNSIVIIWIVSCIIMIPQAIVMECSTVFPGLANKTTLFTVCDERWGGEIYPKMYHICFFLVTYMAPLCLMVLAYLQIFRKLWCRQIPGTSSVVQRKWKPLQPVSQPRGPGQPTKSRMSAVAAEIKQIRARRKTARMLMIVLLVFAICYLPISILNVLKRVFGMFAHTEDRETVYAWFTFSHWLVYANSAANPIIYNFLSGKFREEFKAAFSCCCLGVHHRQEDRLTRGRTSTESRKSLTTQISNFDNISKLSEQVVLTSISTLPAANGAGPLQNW
Description: Effective agonist concentration to the human Orexin receptor type 2 was determined using the Xlfit program. The format is functional.
In turn, `CC(C)C[C@H](NC(=O)[C@@H]1CCCN1C(=O)[C@@H]1CCC(=O)N1)C(=O)N1CCC[C@H]1C(=O)N[C@@H](CC(=O)O)C(=O)N[C@@H](CS)C(=O)N[C@@H](CS)C(=O)N[C@@H](CCCN=C(N)N)C(=O)N[C@@H](CCC(N)=O)C(=O)N[C@@H](CCCCN)C(=O)N[C@H](C(=O)O)[C@@H](C)O` displayed an EC50 of more than 1000 µM. On the same count and under the same terms, for `CC(C)C[C@H](NC(=O)[C@@H]1CCCN1C(=O)[C@@H]1CCC(=O)N1)C(=O)N1CCC[C@H]1C(=O)N[C@@H](CC(=O)O)C(=O)N[C@@H](CS)C(=O)N[C@@H](CS)C(=O)N[C@@H](CCCN=C(N)N)C(=O)N[C@@H](CCC(N)=O)C(=O)N[C@@H](CCCCN)C(=O)N[C@H](C(=O)N[C@@H](CS)C(=O)N[C@@H](CO)C(=O)O)[C@@H](C)O` the value was more than 1000 µM; for `CC[C@H](C)[C@H](NC(=O)[C@H](Cc1cnc[nH]1)NC(=O)[C@H](CC(N)=O)NC(=O)CNC(=O)[C@H](CO)NC(=O)[C@H](C)NC(=O)[C@H](CCC(N)=O)NC(=O)[C@H](CC(C)C)NC(=O)[C@H](CC(C)C)NC(=O)[C@H](CCCNC(=N)N)NC(=O)[C@H](CCC(N)=O)NC(=O)[C@H](CC(C)C)NC(=O)[C@H](CCCNC(=N)N)NC(=O)CNC(=O)[C@H](CCC(N)=O)NC(=O)[C@H](CC(C)C)NC(=O)CN)C(=O)N[C@@H](C)C(=O)NCC(=O)N[C@@H](C)C(=O)N[C@@H](CC(C)C)C(=O)N[C@H](C(=O)N[C@@H](CCSC)C(=O)O)[C@@H](C)O`, 3.15 µM; for `CC[C@H](C)[C@H](NC(=O)CNC(=O)[C@H](C)NC(=O)[C@H](C)NC(=O)[C@H](Cc1cnc[nH]1)NC(=O)[C@H](CC(N)=O)NC(=O)CNC(=O)[C@H](CO)NC(=O)[C@H](C)NC(=O)[C@H](CCC(N)=O)NC(=O)[C@H](CC(C)C)NC(=O)[C@H](CC(C)C)NC(=O)[C@H](CCCNC(=N)N)NC(=O)[C@H](CCC(N)=O)NC(=O)[C@H](CC(C)C)NC(=O)[C@H](CCCNC(=N)N)NC(=O)CNC(=O)[C@H](C)NC(=O)[C@H](CC(C)C)NC(=O)CN)C(=O)N[C@@H](CC(C)C)C(=O)N[C@H](C(=O)N[C@@H](CCSC)C(=O)O)[C@@H](C)O` (H-GLAGRLQRLLQASGNHAAGILTM-OH), 0.24 µM. As to `CC[C@H](C)[C@H](NC(=O)CNC(=O)[C@H](C)NC(=O)[C@H](C)NC(=O)[C@H](Cc1cnc[nH]1)NC(=O)[C@H](CC(N)=O)NC(=O)CNC(=O)[C@H](CO)NC(=O)[C@H](C)NC(=O)[C@H](CCC(N)=O)NC(=O)[C@H](CC(C)C)NC(=O)[C@H](CC(C)C)NC(=O)[C@@H]1CCCN1C(=O)[C@H](CCC(N)=O)NC(=O)[C@H](CC(C)C)NC(=O)[C@H](CCCNC(=N)N)NC(=O)CNC(=O)[C@H](CCC(N)=O)NC(=O)[C@H](CC(C)C)NC(=O)CN)C(=O)N[C@@H](CC(C)C)C(=O)N[C@H](C(=O)N[C@@H](CCSC)C(=O)O)[C@@H](C)O` (H-GLQGRLQPLLQASGNHAAGILTM-OH), a half-maximal response (EC50) required 0.68 µM.

`CC[C@H](C)[C@H](NC(=O)CNC(=O)[C@H](C)NC(=O)[C@H](C)NC(=O)[C@H](Cc1cnc[nH]1)NC(=O)[C@H](CC(N)=O)NC(=O)CNC(=O)[C@H](CO)NC(=O)[C@H](C)NC(=O)[C@H](CCC(N)=O)NC(=O)[C@H](CC(C)C)NC(=O)[C@H](CC(C)C)NC(=O)[C@H](CCCNC(=N)N)NC(=O)[C@H](CCC(N)=O)NC(=O)[C@@H]1CCCN1C(=O)[C@H](CCCNC(=N)N)NC(=O)CNC(=O)[C@H](CCC(N)=O)NC(=O)[C@H](CC(C)C)NC(=O)CN)C(=O)N[C@@H](CC(C)C)C(=O)N[C@H](C(=O)N[C@@H](CCSC)C(=O)O)[C@@H](C)O` (H-GLQGRPQRLLQASGNHAAGILTM-OH): the concentration giving a half-maximal response (EC50) amounted to 0.79 µM. Take `CC[C@H](C)[C@H](NC(=O)CNC(=O)[C@H](C)NC(=O)[C@H](C)NC(=O)[C@H](Cc1c[nH]cn1)NC(=O)[C@H](CC(N)=O)NC(=O)CN)C(=O)N[C@@H](CC(C)C)C(=O)N[C@H](C(=O)N[C@@H](CC(C)C)C(=O)O)[C@@H](C)O` (H-GNHAAGILTL-OH): the EC50 is more than 1000 µM. Take `CC[C@H](C)[C@H](NC(=O)CNC(=O)[C@H](C)NC(=O)[C@H](C)NC(=O)[C@H](Cc1cnc[nH]1)NC(=O)[C@H](CC(N)=O)NC(=O)CNC(=O)[C@H](CO)NC(=O)[C@H](C)NC(=O)[C@H](CCC(N)=O)NC(=O)[C@H](CC(C)C)NC(=O)[C@H](CC(C)C)NC(=O)[C@H](CCCNC(=N)N)NC(=O)[C@H](CCC(N)=O)NC(=O)[C@H](CC(C)C)NC(=O)[C@H](CCCNC(=N)N)NC(=O)CNC(=O)[C@H](CCC(N)=O)NC(=O)[C@@H]1CCCN1C(=O)CN)C(=O)N[C@@H](CC(C)C)C(=O)N[C@H](C(=O)N[C@@H](CCSC)C(=O)O)[C@@H](C)O` (H-GPQGRLQRLLQASGNHAAGILTM-OH): the EC50 is 0.06 µM. As for `CC[C@H](C)[C@H](NC(=O)CNC(=O)[C@H](C)NC(=O)[C@H](C)NC(=O)[C@@H](N)Cc1cnc[nH]1)C(=O)N[C@@H](CC(C)C)C(=O)N[C@H](C(=O)N[C@@H](CC(C)C)C(=O)O)[C@@H](C)O` (H-HAAGILTL-OH), the EC50 is more than 1000 µM. As for `CC[C@H](C)[C@H](NC(=O)CNC(=O)[C@H](C)NC(=O)[C@H](C)NC(=O)[C@H](Cc1c[nH]cn1)NC(=O)[C@H](CC(N)=O)NC(=O)CNC(=O)[C@H](C)NC(=O)CNC(=O)[C@H](Cc1c[nH]cn1)NC(=O)[C@H](CC(C)C)NC(=O)[C@@H](N)CC(C)C)C(=O)N[C@@H](CC(C)C)C(=O)N[C@H](C(=O)N[C@@H](CC(C)C)C(=O)O)[C@@H](C)O` (H-LLHGAGNHAAGILTL-OH), the EC50 was more than 1000 µM. Regarding `CC[C@H](C)[C@H](NC(=O)CNC(=O)[C@H](C)NC(=O)[C@H](C)NC(=O)[C@H](Cc1cnc[nH]1)NC(=O)[C@H](CC(N)=O)NC(=O)CNC(=O)[C@H](CO)NC(=O)[C@H](C)NC(=O)[C@H](CCC(N)=O)NC(=O)[C@H](CC(C)C)NC(=O)[C@@H](N)CC(C)C)C(=O)N[C@@H](CC(C)C)C(=O)N[C@H](C(=O)N[C@@H](CCSC)C(=O)O)[C@@H](C)O` (H-LLQASGNHAAGILTM-OH), the EC50 is more than 1000 µM.

Consider `CC[C@H](C)[C@H](NC(=O)CNC(=O)[C@H](C)NC(=O)[C@H](C)NC(=O)[C@H](Cc1cnc[nH]1)NC(=O)[C@H](CC(N)=O)NC(=O)CNC(=O)[C@H](CO)NC(=O)[C@H](C)NC(=O)[C@H](CCC(N)=O)NC(=O)[C@H](CC(C)C)NC(=O)[C@H](CC(C)C)NC(=O)[C@H](CCCNC(=N)N)NC(=O)[C@H](CCC(N)=O)NC(=O)[C@H](CC(C)C)NC(=O)[C@H](CCCNC(=N)N)NC(=O)CNC(=O)[C@@H](N)CCC(N)=O)C(=O)N[C@@H](CC(C)C)C(=O)N[C@H](C(=O)N[C@@H](CCSC)C(=O)O)[C@@H](C)O` (H-QGRLQRLLQASGNHAAGILTM-OH), for which it took 1.22 µM to reach a half-maximal effect (EC50). Still for that read-out and setting: then `CC[C@H](C)[C@H](NC(=O)CNC(=O)[C@H](C)NC(=O)[C@H](C)NC(=O)[C@H](Cc1cnc[nH]1)NC(=O)[C@H](CC(N)=O)NC(=O)CNC(=O)[C@H](C)NC(=O)CNC(=O)[C@H](Cc1cnc[nH]1)NC(=O)[C@H](CC(C)C)NC(=O)[C@H](CC(C)C)NC(=O)[C@H](CCC(=O)O)NC(=O)[C@H](Cc1ccc(O)cc1)NC(=O)[C@H](CC(C)C)NC(=O)[C@H](CCCNC(=N)N)NCCCCCC(=O)[C@H](CC(=O)O)NC(=O)[C@@H]1CCCN1C(=O)[C@H](CC(C)C)NC(=O)[C@@H]1CCCN1C(=O)[C@@H]1CCC(=O)N1)C(=O)N[C@@H](CC(C)C)C(=O)N[C@H](C(=O)N[C@@H](CC(C)C)C(=O)O)[C@@H](C)O` (H-[X2]([Pro-Leu-Pro-pGlu])LYELLHGAGNHAAGILTL-OH), with 0.64 µM; and `CC[C@H](C)[C@H](NC(=O)CNC(=O)[C@H](C)NC(=O)[C@H](C)NC(=O)[C@H](Cc1c[nH]cn1)NC(=O)[C@H](CC(N)=O)NC(=O)CNC(=O)[C@H](CO)NC(=O)[C@H](C)NC(=O)[C@H](CCC(N)=O)NC(=O)[C@H](CC(C)C)NC(=O)[C@H](CC(C)C)NC(=O)[C@H](CCCN=C(N)N)NC(=O)[C@@H]1CCCN1C(=O)[C@H](CC(C)C)NC(=O)[C@H](CCCN=C(N)N)NC(=O)CNC(=O)[C@H](CCC(N)=O)NC(=O)[C@H](CC(C)C)NC(=O)CN)C(=O)N[C@@H](CC(C)C)C(=O)N[C@H](C(=O)N[C@@H](CCSC)C(=O)O)[C@@H](C)O` (stereo in doubt; form 1), with 0.28 µM; and `CC[C@H](C)[C@H](NC(=O)CNC(=O)[C@H](C)NC(=O)[C@H](C)NC(=O)[C@H](Cc1c[nH]cn1)NC(=O)[C@H](CC(N)=O)NC(=O)CNC(=O)[C@H](CO)NC(=O)[C@H](C)NC(=O)[C@H](CCC(N)=O)NC(=O)[C@H](CC(C)C)NC(=O)[C@H](CC(C)C)NC(=O)[C@H](CCCN=C(N)N)NC(=O)[C@@H]1CCCN1C(=O)[C@H](CC(C)C)NC(=O)[C@H](CCCN=C(N)N)NC(=O)CNC(=O)[C@H](CCC(N)=O)NC(=O)[C@H](CC(C)C)NC(=O)CN)C(=O)N[C@@H](CC(C)C)C(=O)N[C@H](C(=O)N[C@@H](CCSC)C(=O)O)[C@@H](C)O` (stereo in doubt; form 2), with 0.36 µM.

The target of another assay is T2, Orexin/Hypocretin receptor type 1 (Homo sapiens, UniProt O43613).
T2 sequence (O43613 whole entry): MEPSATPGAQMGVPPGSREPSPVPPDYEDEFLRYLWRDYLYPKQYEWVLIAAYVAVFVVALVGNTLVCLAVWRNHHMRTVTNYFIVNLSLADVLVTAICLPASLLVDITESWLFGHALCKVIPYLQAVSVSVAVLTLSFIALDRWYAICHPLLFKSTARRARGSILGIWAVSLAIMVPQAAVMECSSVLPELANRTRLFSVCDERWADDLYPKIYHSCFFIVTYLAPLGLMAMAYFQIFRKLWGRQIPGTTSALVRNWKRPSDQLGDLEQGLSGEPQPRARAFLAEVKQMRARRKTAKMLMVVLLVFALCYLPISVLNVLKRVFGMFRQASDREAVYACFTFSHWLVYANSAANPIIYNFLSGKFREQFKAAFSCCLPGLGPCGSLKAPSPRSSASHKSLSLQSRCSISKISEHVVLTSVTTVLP
Description: Effective agonist concentration to human orexin receptor type 1 determined using the Xlfit program. Format: functional.
`CC(C)C[C@H](NC(=O)[C@@H]1CCCN1C(=O)[C@@H]1CCC(=O)N1)C(=O)N1CCC[C@H]1C(=O)N[C@@H](CC(=O)O)C(=O)N[C@@H](CS)C(=O)N[C@@H](CS)C(=O)N[C@@H](CCCN=C(N)N)C(=O)N[C@@H](CCC(N)=O)C(=O)N[C@@H](CCCCN)C(=O)N[C@H](C(=O)O)[C@@H](C)O` showed an EC50 of more than 1000 µM.

As to `CC(C)C[C@H](NC(=O)[C@@H]1CCCN1C(=O)[C@@H]1CCC(=O)N1)C(=O)N1CCC[C@H]1C(=O)N[C@@H](CC(=O)O)C(=O)N[C@@H](CS)C(=O)N[C@@H](CS)C(=O)N[C@@H](CCCN=C(N)N)C(=O)N[C@@H](CCC(N)=O)C(=O)N[C@@H](CCCCN)C(=O)N[C@H](C(=O)N[C@@H](CS)C(=O)N[C@@H](CO)C(=O)O)[C@@H](C)O`, the EC50 was more than 1000 µM.

The record behind these values is ChEMBL document CHEMBL1148480, “Structure-activity studies of orexin a and orexin B at the human orexin 1 and orexin 2 receptors led to orexin 2 receptor selective and orexin 1 receptor preferring ligands” (J Med Chem, 2004).
